The structures appear in SMILES notation.

This note sets out measurements from patent publication US20260317309A1, “N-HETEROCYLIC GPCR RECEPTOR AGONISTS, PHARMACEUTICAL COMPOSITIONS COMPRISING THE SAME, AND METHODS FOR THEIR USE” (Carmot Therapeutics, Inc., priority 2022, published 2026).

This assay has as its target T1, human GLP-1 receptor (Homo sapiens, UniProt P43220).
T1 construct: expressed in transfected cells
The assay can be described thus: GLP-1R cAMP assay (cAMP accumulation in CHO cells stably overexpressing the human GLP-1 receptor, HitHunter kit). To be noted: CHO cells stably overexpressing human GLP-1R, 30 min, 20-point dose response in triplicate. In kind it is cell-based. In a few lines:
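CHO cells stably expressing the human receptor (10,000/well) in HBSS with 10 mM HEPES and 625 μM IBMX, given compound as a 20-point dose response in triplicate for 30 min. cAMP was read by luminescent enzyme-complementation detection after overnight incubation, and EC50 was fitted from dose-response curves.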

T1 sequence (P43220 24-463): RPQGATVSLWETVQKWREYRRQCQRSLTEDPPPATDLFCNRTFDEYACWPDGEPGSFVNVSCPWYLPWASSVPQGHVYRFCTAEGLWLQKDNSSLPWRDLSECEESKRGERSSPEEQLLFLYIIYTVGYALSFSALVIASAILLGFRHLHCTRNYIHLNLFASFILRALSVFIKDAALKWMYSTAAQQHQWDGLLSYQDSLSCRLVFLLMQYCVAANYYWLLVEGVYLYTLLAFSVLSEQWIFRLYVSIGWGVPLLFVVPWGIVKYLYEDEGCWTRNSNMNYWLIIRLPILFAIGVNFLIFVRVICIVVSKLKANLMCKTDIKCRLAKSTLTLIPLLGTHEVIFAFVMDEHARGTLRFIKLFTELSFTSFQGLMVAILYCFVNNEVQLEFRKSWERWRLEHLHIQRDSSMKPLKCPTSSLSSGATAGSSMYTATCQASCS

`C[C@H]1C[C@@H](Oc2ccnc(COc3ncc(Cl)cc3F)c2)CCN1Cc1nc2ccc(C(=O)O)cc2n1C[C@@H]1CCO1` [Compound 615, 2-(((2S,4S)-4-((2-(((5-Chloro-3-fluoropyridin-2-yl)oxy)methyl)pyridin-4-yl)oxy)-2-methylpiperidin-1-yl)methyl)-1-(((S)-oxetan-2-yl)methyl)-1H-benzo[d]imidazole-6-carboxylic acid] came in with an EC50 of 0.1 to 1 nM.
In the case of `C[C@H]1C[C@@H](Oc2ccnc(COc3ccc(Cl)cn3)c2)CCN1Cc1nc2c(F)cc(C(=O)O)cc2n1C[C@@H]1CCO1` [Compound 616, 2-(((2S,4S)-4-((2-(((5-Chloropyridin-2-yl)oxy)methyl)pyridin-4-yl)oxy)-2-methylpiperidin-1-yl)methyl)-4-fluoro-1-(((S)-oxetan-2-yl)methyl)-1H-benzo[d]imidazole-6-carboxylic acid] it was 0.1 to 1 nM; in that of `C[C@H](Cn1c(CN2CC[C@H](Oc3ccnc(COc4ncc(F)cc4F)n3)C[C@@H]2C)nc2ccc(C(=O)O)cc21)OC(F)F` [Compound 617, 1-((R)-2-(Difluoromethoxy)propyl)-2-(((2S,4S)-4-((2-(((3,5-difluoropyridin-2-yl)oxy)methyl)pyrimidin-4-yl)oxy)-2-methylpiperidin-1-yl)methyl)-1H-benzo[d]imidazole-6-carboxylic acid], less than 0.1 nM; in that of `C[C@H](Cn1c(CN2CC[C@H](Oc3ccnc(COc4ccc(F)cc4F)n3)C[C@@H]2C)nc2ccc(C(=O)O)cc21)OC1CC1` [Compound 618, 1-((R)-2-cyclopropoxypropyl)-2-(((2S,4S)-4-((2-((2,4-difluorophenoxy)methyl)pyrimidin-4-yl)oxy)-2-methylpiperidin-1-yl)methyl)-1H-benzo[d]imidazole-6-carboxylic acid], 0.1 to 1 nM.
In the case of `C[C@H]1C[C@@H](Oc2ccnc(COc3ncc(F)cc3F)c2)CCN1Cc1nc2c(F)cc(C(=O)O)cc2n1C[C@@H]1CCO1` [Compound 619, 2-(((2S,4S)-4-((2-(((3,5-Difluoropyridin-2-yl)oxy)methyl)pyridin-4-yl)oxy)-2-methylpiperidin-1-yl)methyl)-4-fluoro-1-(((S)-oxetan-2-yl)methyl)-1H-benzo[d]imidazole-6-carboxylic acid] it was 1 to 10 nM; in that of `C[C@H](Cn1c(CN2CC[C@H](Oc3ccnc(COc4ncc(F)cc4F)n3)C[C@@H]2C)nc2c(F)cc(C(=O)O)cc21)OC(F)F` [Compound 620, 1-((R)-2-(difluoromethoxy)propyl)-2-(((2S,4S)-4-((2-(((3,5-difluoropyridin-2-yl)oxy)methyl)pyrimidin-4-yl)oxy)-2-methylpiperidin-1-yl)methyl)-4-fluoro-1H-benzo[d]imidazole-6-carboxylic acid], 0.1 to 1 nM; in that of `C[C@H]1C[C@@H](Oc2ccnc(COc3ccc(F)cc3F)n2)CCN1Cc1nc2c(F)cc(C(=O)O)cc2n1C[C@@H]1CCCO1` [Compound 621, 2-(((2S,4S)-4-((2-((2,4-Difluorophenoxy)methyl)pyrimidin-4-yl)oxy)-2-methylpiperidin-1-yl)methyl)-4-fluoro-1-(((S)-tetrahydrofuran-2-yl)methyl)-1H-benzo[d]imidazole-6-carboxylic acid], less than 0.1 nM.
In the case of `C[C@H]1C[C@@H](Oc2ccnc(COc3ncc(F)cc3F)n2)CCN1Cc1nc2c(F)cc(C(=O)O)cc2n1C[C@@H]1CCCO1` [Compound 622, 2-(((2S,4S)-4-((2-(((3,5-Difluoropyridin-2-yl)oxy)methyl)pyrimidin-4-yl)oxy)-2-methylpiperidin-1-yl)methyl)-4-fluoro-1-(((S)-tetrahydrofuran-2-yl)methyl)-1H-benzo[d]imidazole-6-carboxylic acid] it was 0.1 to 1 nM.
`C[C@H]1C[C@@H](Oc2ccnc(COc3ccc(F)cc3F)n2)CCN1Cc1nc2ccc(CCC(=O)O)cc2n1C[C@@H]1CCO1` [Compound 623, 3-(2-(((2S,4S)-4-((2-((2,4-difluorophenoxy)methyl)pyrimidin-4-yl)oxy)-2-methylpiperidin-1-yl)methyl)-1-(((S)-oxetan-2-yl)methyl)-1H-benzo[d]imidazol-6-yl) propanoic acid]: the EC50 is 1 to 10 nM.
`C[C@H]1C[C@@H](Oc2ccnc(CNc3ncc(F)cc3Cl)n2)CCN1Cc1nc2ccc(C(=O)O)cc2n1C[C@@H]1CCO1` [Compound 624, 2-(((2S,4S)-4-((2-(((3-Chloro-5-fluoropyridin-2-yl)amino)methyl)pyrimidin-4-yl)oxy)-2-methylpiperidin-1-yl)methyl)-1-(((S)-oxetan-2-yl)methyl)-1H-benzo[d]imidazole-6-carboxylic acid]: the EC50 lay in the range of 1 to 10 nM.
In the case of `C[C@H]1C[C@@H](Oc2ccnc(COc3ncc(C#N)cc3F)c2)CCN1Cc1nc2c(F)cc(C(=O)O)cc2n1C[C@@H]1CCO1` [Compound 625, 2-(((2S,4S)-4-((2-(((5-Cyano-3-fluoropyridin-2-yl)oxy)methyl)pyridin-4-yl)oxy)-2-methylpiperidin-1-yl)methyl)-4-fluoro-1-(((S)-oxetan-2-yl)methyl)-1H-benzo[d]imidazole-6-carboxylic acid] it was 1 to 10 nM; in that of `C[C@H](Cn1c(CN2CC[C@H](Oc3ccnc(COc4ncc(C#N)cc4F)n3)C[C@@H]2C)nc2ccc(C(=O)O)cc21)OC(F)F` [Compound 626, 2-(((2S,4S)-4-((2-(((5-cyano-3-fluoropyridin-2-yl)oxy)methyl)pyrimidin-4-yl)oxy)-2-methylpiperidin-1-yl)methyl)-1-((R)-2-(difluoromethoxy)propyl)-1H-benzo[d]imidazole-6-carboxylic acid], 0.1 to 1 nM; in that of `C[C@H](Cn1c(CN2CC[C@H](Oc3ccnc(COc4ncc(F)cc4C#N)n3)C[C@@H]2C)nc2ccc(C(=O)O)cc21)OC(F)F` [Compound 627, 2-(((2S,4S)-4-((2-(((3-Cyano-5-fluoropyridin-2-yl)oxy)methyl)pyrimidin-4-yl)oxy)-2-methylpiperidin-1-yl)methyl)-1-((R)-2-(difluoromethoxy)propyl)-1H-benzo[d]imidazole-6-carboxylic acid], 0.1 to 1 nM.
Next, `O=C(O)c1cc(F)c2nc(CN3CCC(Oc4ccnc(COc5ncc(F)cc5F)n4)CC3)n(C[C@@H]3CCO3)c2c1` [Compound 628, (S)-2-((4-((2-(((3,5-difluoropyridin-2-yl)oxy)methyl)pyrimidin-4-yl)oxy)piperidin-1-yl)methyl)-4-fluoro-1-(oxetan-2-ylmethyl)-1H-benzo[d]imidazole-6-carboxylic acid]: 0.1 to 1 nM.
In the case of `C[C@H]1C[C@@H](Oc2ccnc(COc3ncc(F)cc3C#N)n2)CCN1Cc1nc2c(F)cc(C(=O)O)cc2n1C[C@@H]1CCO1` [Compound 629, 2-(((2S,4S)-4-((2-(((3-cyano-5-fluoropyridin-2-yl)oxy)methyl)pyrimidin-4-yl)oxy)-2-methylpiperidin-1-yl)methyl)-4-fluoro-1-(((S)-oxetan-2-yl)methyl)-1H-benzo[d]imidazole-6-carboxylic acid] it was less than 0.1 nM.
Take `C[C@H]1C[C@@H](Oc2ccnc(COc3ncc(F)cc3C#N)n2)CCN1Cc1nc2ccc(C(=O)O)cc2n1C[C@@H]1CCO1` [Compound 630, 2-(((2S,4S)-4-((2-(((3-Cyano-5-fluoropyridin-2-yl)oxy)methyl)pyrimidin-4-yl)oxy)-2-methylpiperidin-1-yl)methyl)-1-(((S)-oxetan-2-yl)methyl)-1H-benzo[d]imidazole-6-carboxylic acid]: the EC50 was in the range of 0.1 to 1 nM.

The EC50 is the midpoint of the concentration-response curve. Low values mean greater potency, high ones weaker potency.
